Experimental data: PMC10281575, “PfCRT mutations conferring piperaquine resistance in falciparum malaria shape the kinetics of quinoline drug binding and transport” (PLOS Pathogens, 2023)
“And” between values parts separate entries of the source, which are not always exact repeats. Equal entries are not always repeated.

Target: T1, PfCRT^Dd2_F145I (Plasmodium falciparum, UniProt Q8IBZ9, A220S/F145I/I356T/K76T/M74I/N326S/N75E/Q271E/R371I)
T1 construct: expressed in transfected cells; host or cells: Xenopus laevis oocytes injected with in vitro transcribed RNA (pSP64T)
T1 sequence (Q8IBZ9 1-424 M74I/N75E/K76T/F145I/A220S/Q271E/N326S/I356T/R371I): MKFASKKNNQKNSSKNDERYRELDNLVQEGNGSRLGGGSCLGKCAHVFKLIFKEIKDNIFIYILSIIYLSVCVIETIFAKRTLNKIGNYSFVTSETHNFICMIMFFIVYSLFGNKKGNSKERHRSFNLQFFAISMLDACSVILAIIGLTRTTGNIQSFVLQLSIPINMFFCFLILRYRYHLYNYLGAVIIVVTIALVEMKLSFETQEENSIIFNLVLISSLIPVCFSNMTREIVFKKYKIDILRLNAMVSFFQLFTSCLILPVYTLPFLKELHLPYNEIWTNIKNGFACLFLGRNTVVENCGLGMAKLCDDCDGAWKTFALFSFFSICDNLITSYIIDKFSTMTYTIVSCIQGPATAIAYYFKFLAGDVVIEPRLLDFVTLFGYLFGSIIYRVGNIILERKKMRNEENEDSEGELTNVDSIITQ
Assay: Competition kinetics of drug transport (radiolabeled substrate plus cold inhibitor), PfCRT^Dd2_F145I-expressing oocytes
Type: cell-based
Procedure: To further characterize the kinetic relationship between CQ and PPQ, we performed a series of competition reactions. To this end, water-injected oocytes and PfCRT-expressing oocytes were incubated in medium containing one of seven concentrations of radio-labeled CQ and one of six concentrations of cold PPQ for 60 min before the amount of radio-labeled CQ uptake was determined. The rate of PfCRT-mediated CQ uptake was calculated for each condition by subtracting the corresponding value obtained for water-injected oocytes from those of PfCRT-expressing oocytes. The results were analyzed as a function of the CQ concentration (Fig 4A) and 16 different models of substrate competition were globally fit to the data by the least-squares method, using Python. The models were ranked, according to their Akaike information criterion difference (ΔAICC) and their Akaike weight (Fig 4B), with the most plausible model being the one with the lowest AICC (ΔAICC = 0) and the highest Akaike weight.
A complementary set of experiments was undertaken to investigate the kinetic mechanism by which PfCRT^Dd2_F145I accepts CQ and PPQ (Fig 6). […] These included a global fit of the substrate competition data to the 16 kinetic models (Fig 6), analysis of the secondary plots (Vmax,app and Vmax,app/KM,app as a function of the inhibitor concentration) (Fig 7A), a fractional velocity plot analysis (Fig 7B) and a comparison of the experimental data with the modelled data using the noncompetitive inhibition equation (Fig 7C to 7F). […] The fractional velocity plot illustrated the partial character of the noncompetitive inhibition mechanism by yielding a partiality factor β^CQ = 0.31 ± 0.04, by which PPQ reduces the transport velocity of CQ (Fig 7B). […] A 3D model of the kinetics between PfCRT^Dd2_F145I, CQ and PPQ, and analyses of the residuals as a function of substrate and inhibitor concentrations confirmed that the model was also an appropriate explanation for the mutant transporter (Fig 7C to 7F).
Drug transport assays were performed as previously described. Briefly, measurements of radiolabeled drug uptake were made over 1 h, unless otherwise specified. […] Where specified, one or more unlabeled drugs were also present at the indicated concentrations. The direction of drug transport in the assays is from the extracellular medium (pH 6) into the oocyte cytosol (pH 7.2), which corresponds to the efflux of CQ or PPQ from the acidic digestive vacuole (pH 5.2) into the parasite cytosol (pH 7.2). The uptake assays were terminated by removing the oocytes from the reaction medium and washing them three times with 2 mL of ice-cold ND96 buffer. Each oocyte was transferred to a separate scintillation vial and lysed by the addition of 200 μL of a 5% SDS solution. The radioactivity in the sample was measured using a liquid scintillation analyser Tri-Carb 4910 TR (PerkinElmer). Water-injected oocytes were analyzed in parallel as a negative control. The buffer from each condition was measured in duplicate in parallel to each experiment to transform counts per minute into pmol of drug. Drug uptake attributable to PfCRT was determined by subtracting the background uptake from water-injected oocytes from that of PfCRT-expressing oocytes. In all cases, at least three independent experiments were performed on oocytes from different frogs, and for each condition in an experiment, measurements were made from 10 oocytes per treatment.
The following equations were adopted from Segel (1993), and the reader is referred to that text for the assumptions made in the author’s approach in the derivation of each equation [31]. The concentration of substrate is denoted as [S1] and the concentration of the inhibiting substrate is denoted as [S2]. KS1 and KS2 are the dissociation constants for the respective substrate-protein complexes.
Analyses of the kinetic data were performed using SigmaPlot version 13.0 and Python. […]

CCN(CC)CCCC(C)Nc1ccnc2cc(Cl)ccc12 (stereo not shown) [CQ, chloroquine]
PfCRTDd2_F145I-mediated CQ transport (10 µM CQ, 50 µM PPQ): 0.59 pmol oocyte-1 h-1 and 0.39 pmol oocyte-1 h-1
PfCRTDd2_F145I-mediated CQ transport (10 µM CQ, 125 µM PPQ): 0.68 pmol oocyte-1 h-1 and 0.58 pmol oocyte-1 h-1 and 0.47 pmol oocyte-1 h-1
PfCRTDd2_F145I-mediated CQ transport (10 µM CQ, 200 µM PPQ): 0.27 pmol oocyte-1 h-1 and 0.32 pmol oocyte-1 h-1 and 0.33 pmol oocyte-1 h-1
PfCRTDd2_F145I-mediated CQ transport (10 µM CQ, 350 µM PPQ): 0.43 pmol oocyte-1 h-1 and 0.31 pmol oocyte-1 h-1 and 0.46 pmol oocyte-1 h-1
PfCRTDd2_F145I-mediated CQ transport (50 µM CQ, 0 µM PPQ): 3.80 pmol oocyte-1 h-1 and 4.28 pmol oocyte-1 h-1 and 2.84 pmol oocyte-1 h-1
PfCRTDd2_F145I-mediated CQ transport (50 µM CQ, 50 µM PPQ): 3.24 pmol oocyte-1 h-1 and 2.4 pmol oocyte-1 h-1 and 3.22 pmol oocyte-1 h-1
PfCRTDd2_F145I-mediated CQ transport (50 µM CQ, 125 µM PPQ): 3.47 pmol oocyte-1 h-1 and 2.37 pmol oocyte-1 h-1 and 2.11 pmol oocyte-1 h-1
PfCRTDd2_F145I-mediated CQ transport (50 µM CQ, 200 µM PPQ): 2.85 pmol oocyte-1 h-1 and 2.54 pmol oocyte-1 h-1 and 2.07 pmol oocyte-1 h-1
PfCRTDd2_F145I-mediated CQ transport (50 µM CQ, 350 µM PPQ): 1.72 pmol oocyte-1 h-1 and 1.78 pmol oocyte-1 h-1 and 2.56 pmol oocyte-1 h-1
PfCRTDd2_F145I-mediated CQ transport (50 µM CQ, 500 µM PPQ): 1.90 pmol oocyte-1 h-1 and 2.40 pmol oocyte-1 h-1
PfCRTDd2_F145I-mediated CQ transport (100 µM CQ, 0 µM PPQ): 5.25 pmol oocyte-1 h-1 and 7.33 pmol oocyte-1 h-1 and 8.14 pmol oocyte-1 h-1
PfCRTDd2_F145I-mediated CQ transport (100 µM CQ, 125 µM PPQ): 4.86 pmol oocyte-1 h-1 and 5.68 pmol oocyte-1 h-1 and 5.61 pmol oocyte-1 h-1
PfCRTDd2_F145I-mediated CQ transport (100 µM CQ, 200 µM PPQ): 4.12 pmol oocyte-1 h-1 and 4.69 pmol oocyte-1 h-1 and 4.23 pmol oocyte-1 h-1
PfCRTDd2_F145I-mediated CQ transport (100 µM CQ, 350 µM PPQ): 3.37 pmol oocyte-1 h-1 and 4.27 pmol oocyte-1 h-1 and 5.15 pmol oocyte-1 h-1
PfCRTDd2_F145I-mediated CQ transport (200 µM CQ, 0 µM PPQ): 12.53 pmol oocyte-1 h-1 and 12.79 pmol oocyte-1 h-1
PfCRTDd2_F145I-mediated CQ transport (200 µM CQ, 50 µM PPQ): 14.25 pmol oocyte-1 h-1 and 10 pmol oocyte-1 h-1 and 10.59 pmol oocyte-1 h-1
PfCRTDd2_F145I-mediated CQ transport (200 µM CQ, 125 µM PPQ): 10.11 pmol oocyte-1 h-1 and 9.30 pmol oocyte-1 h-1 and 9.95 pmol oocyte-1 h-1
PfCRTDd2_F145I-mediated CQ transport (200 µM CQ, 200 µM PPQ): 7.48 pmol oocyte-1 h-1 and 7.15 pmol oocyte-1 h-1 and 10.15 pmol oocyte-1 h-1
PfCRTDd2_F145I-mediated CQ transport (200 µM CQ, 350 µM PPQ): 6.25 pmol oocyte-1 h-1 and 7.4 pmol oocyte-1 h-1 and 8.42 pmol oocyte-1 h-1
PfCRTDd2_F145I-mediated CQ transport (200 µM CQ, 500 µM PPQ): 7.88 pmol oocyte-1 h-1 and 6.35 pmol oocyte-1 h-1
PfCRTDd2_F145I-mediated CQ transport (300 µM CQ, 0 µM PPQ): 13.73 pmol oocyte-1 h-1 and 19.15 pmol oocyte-1 h-1
PfCRTDd2_F145I-mediated CQ transport (300 µM CQ, 50 µM PPQ): 13.84 pmol oocyte-1 h-1 and 14.19 pmol oocyte-1 h-1 and 16.04 pmol oocyte-1 h-1
PfCRTDd2_F145I-mediated CQ transport (300 µM CQ, 125 µM PPQ): 11.05 pmol oocyte-1 h-1 and 9.73 pmol oocyte-1 h-1 and 15.82 pmol oocyte-1 h-1
PfCRTDd2_F145I-mediated CQ transport (300 µM CQ, 200 µM PPQ): 10.02 pmol oocyte-1 h-1 and 12.63 pmol oocyte-1 h-1 and 9.83 pmol oocyte-1 h-1
PfCRTDd2_F145I-mediated CQ transport (300 µM CQ, 350 µM PPQ): 9.31 pmol oocyte-1 h-1 and 9.21 pmol oocyte-1 h-1 and 10.66 pmol oocyte-1 h-1
PfCRTDd2_F145I-mediated CQ transport (300 µM CQ, 500 µM PPQ): 9.09 pmol oocyte-1 h-1 and 11.47 pmol oocyte-1 h-1
PfCRTDd2_F145I-mediated CQ transport (400 µM CQ, 0 µM PPQ): 14.23 pmol oocyte-1 h-1 and 18.19 pmol oocyte-1 h-1
PfCRTDd2_F145I-mediated CQ transport (400 µM CQ, 50 µM PPQ): 15.01 pmol oocyte-1 h-1 and 14.7 pmol oocyte-1 h-1 and 18.28 pmol oocyte-1 h-1
PfCRTDd2_F145I-mediated CQ transport (400 µM CQ, 125 µM PPQ): 14.33 pmol oocyte-1 h-1 and 12.62 pmol oocyte-1 h-1 and 13.88 pmol oocyte-1 h-1
PfCRTDd2_F145I-mediated CQ transport (400 µM CQ, 200 µM PPQ): 9.98 pmol oocyte-1 h-1 and 13.36 pmol oocyte-1 h-1 and 12.15 pmol oocyte-1 h-1
PfCRTDd2_F145I-mediated CQ transport (400 µM CQ, 350 µM PPQ): 7.72 pmol oocyte-1 h-1 and 13.35 pmol oocyte-1 h-1 and 10.83 pmol oocyte-1 h-1
PfCRTDd2_F145I-mediated CQ transport (500 µM CQ, 0 µM PPQ): 19.16 pmol oocyte-1 h-1 and 17.86 pmol oocyte-1 h-1
PfCRTDd2_F145I-mediated CQ transport (500 µM CQ, 50 µM PPQ): 16.43 pmol oocyte-1 h-1 and 15.64 pmol oocyte-1 h-1 and 17.36 pmol oocyte-1 h-1
PfCRTDd2_F145I-mediated CQ transport (500 µM CQ, 125 µM PPQ): 14.97 pmol oocyte-1 h-1 and 16.69 pmol oocyte-1 h-1 and 12.9 pmol oocyte-1 h-1
